From ChEMBL document CHEMBL2046319, “Synthesis and cytotoxicity of lupane-type triterpenoid glyceryl esters” (Bioorg Med Chem Lett, 2012)

Assays:
[1] = Cytotoxicity against human WS1 cells by Alamar Blue dye assay; type: cell-based
DLD-1 = assay: Cytotoxicity against human DLD1 cells by Alamar Blue dye assay; type: functional, cell-based
A549 = assay: Cytotoxicity against human A549 cells by Alamar Blue dye assay; type: functional, cell-based

SMILES | IC50 [1] [µM] | IC50 (DLD-1) [µM] | IC50 (A549) [µM]
C=C(C)[C@@H]1CC[C@]2(COC(=O)[C@H]3COC(C)(C)O3)CC[C@]3(C)[C@H](CC[C@@H]4[C@@]5(C)CC[C@H](OC(C)=O)C(C)(C)[C@@H]5CC[C@]43C)[C@@H]12 | > 100 | > 100 | > 100
C=C(C)[C@@H]1CC[C@]2(C(=O)OC[C@H]3COC(C)(C)O3)CC[C@]3(C)[C@H](CC[C@@H]4[C@@]5(C)CC[C@H](OC(C)=O)C(C)(C)[C@@H]5CC[C@]43C)[C@@H]12 | > 100 | > 100 | > 100
C=C(C)[C@@H]1CC[C@]2(COC(=O)[C@H](O)CO)CC[C@]3(C)[C@H](CC[C@@H]4[C@@]5(C)CC[C@H](OC(C)=O)C(C)(C)[C@@H]5CC[C@]43C)[C@@H]12 | 16 | 16 | 16.3
C=C(C)[C@@H]1CC[C@]2(C(=O)OC[C@H](O)CO)CC[C@]3(C)[C@H](CC[C@@H]4[C@@]5(C)CC[C@H](OC(C)=O)C(C)(C)[C@@H]5CC[C@]43C)[C@@H]12 | 15 | 18 | 16.5
C=C(C)[C@@H]1CC[C@]2(COC(=O)[C@H](O)CO)CC[C@]3(C)[C@H](CC[C@@H]4[C@@]5(C)CC[C@H](OC(=O)[C@H](O)CO)C(C)(C)[C@@H]5CC[C@]43C)[C@@H]12 | 40 | 39 | 31
C=C(C)[C@@H]1CC[C@]2(COC(C)=O)CC[C@]3(C)[C@H](CC[C@@H]4[C@@]5(C)CC[C@H](OC(=O)[C@H]6COC(C)(C)O6)C(C)(C)[C@@H]5CC[C@]43C)[C@@H]12 | > 100 | > 100 | > 100
C=C(C)[C@@H]1CC[C@]2(COC(C)=O)CC[C@]3(C)[C@H](CC[C@@H]4[C@@]5(C)CC[C@H](OC(=O)[C@H](O)CO)C(C)(C)[C@@H]5CC[C@]43C)[C@@H]12 | 15 | 16 | 15.5
C=C(C)[C@@H]1CC[C@]2(C(=O)OC[C@H]3COC(C)(C)O3)CC[C@]3(C)[C@H](CC[C@@H]4[C@@]5(C)CC[C@H](O)C(C)(C)[C@@H]5CC[C@]43C)[C@@H]12 | 43 | 96 | 30
C=C(C)[C@@H]1CC[C@]2(COC(=O)[C@H]3COC(C)(C)O3)CC[C@]3(C)[C@H](CC[C@@H]4[C@@]5(C)CC[C@H](OC(=O)[C@H]6COC(C)(C)O6)C(C)(C)[C@@H]5CC[C@]43C)[C@@H]12 | > 100 | > 100 | > 100
C=C(C)[C@@H]1CC[C@]2(C(=O)OC[C@H](O)CO)CC[C@]3(C)[C@H](CC[C@@H]4[C@@]5(C)CC[C@H](O)C(C)(C)[C@@H]5CC[C@]43C)[C@@H]12 | 13.7 | 23 | 16
